{"source": "patent US20190382396A1", "about": "“SALTS OF BICYCLO[1.1.1]PENTANE INHIBITORS OF DUAL LEUCINE ZIPPER (DLK) KINASE FOR THE TREATMENT OF DISEASE” (Board of Regents, The University of Texas System, priority 2018, published 2019)", "key": {"[1]": {"assay": "Solubility in physiologically relevant solutions (SGF, FaSSIF, FeSSIF)", "format": "physicochemical", "settings": "25±0.5° C.; for solubility at 24 h: 25 °C, thermodynamic from solid", "protocol": "Solubility of the free base 1 and the selected salts 8, 9, 10, and 11 in physiologically relevant solutions were examined. For each material, aliquots were added to 2 ml vials containing 500 uL of either SGF, FaSSIF, or FeSSIF, which were then sealed. The mixtures were kept shaking by thermomixer at 700 rpm, 25±0.5° C. for 24 h to facilitate the dissolution and then centrifuged by 96-well plates at 3000 rpm for 2 min. The filter liquors were diluted with diluents (ACN/water, 50/50) and analyzed by HPLC."}, "[2]": {"assay": "Solubility of hydrogen fumarate salt 11 (1000 mg scale-up batch)", "format": "physicochemical"}}, "note": "Where two headings read alike, the source gives them in different places."}
{"smiles": "CC(C)c1nc(-c2cnc(N)c(OC(F)(F)F)c2)cn1C12CC(N3CCOCC3)(C1)C2.O=C(O)/C=C/C(=O)O", "note": "[Example 11, 5-(2-isopropyl-1-(3-morpholinobicyclo[1.1.1]pentan-1-yl)-1H-imidazol-4-yl)-3-(trifluoromethoxy)pyridin-2-amine hydrogen fumarate]", "values": [{"measurement": "solubility at 24 h", "setting": "[1]; simulated gastric fluid, SGF, read-out: Solubility SGF Conc", "result": 5.81, "unit": "mg/mL"}, {"measurement": "solubility at 24 h", "setting": "[1]; FaSSIF, read-out: Solubility FaSSIF Conc", "result": 0.459, "unit": "mg/mL"}, {"measurement": "solubility at 24 h", "setting": "[1]; FeSSIF, read-out: Solubility FeSSIF Conc", "result": 0.646, "unit": "mg/mL"}, {"measurement": "FaSSIF pH after 24 h", "setting": "[1]; FaSSIF", "result": 4.85}, {"measurement": "FeSSIF pH after 24 h", "setting": "[1]; FeSSIF", "result": 4.84}, {"measurement": "SGF pH after 24 h", "setting": "[1]; SGF", "result": 3.01}, {"measurement": "solubility", "setting": "[2]; aqueous with cosolvent or surfactant or cyclodextrin, 1/1 (v/v) Acetone/H2O, 50° C.", "result": "50 to 100", "unit": "mg/mL"}, {"measurement": "solubility", "setting": "[2]; aqueous with cosolvent or surfactant or cyclodextrin, 1/1 (v/v) Acetone/H2O, RT", "result": "< 33", "unit": "mg/mL"}, {"measurement": "solubility", "setting": "[2]; aqueous with cosolvent or surfactant or cyclodextrin, 1/1 (v/v) EtOH/H2O, 50° C.", "result": "50 to 100", "unit": "mg/mL"}, {"measurement": "solubility", "setting": "[2]; aqueous with cosolvent or surfactant or cyclodextrin, 1/1 (v/v) EtOH/H2O, RT", "result": "20 to 33", "unit": "mg/mL"}, {"measurement": "solubility", "setting": "[2]; ethanol, organic solvent or mixture, EtOH, 50° C.", "result": "20 to 33", "unit": "mg/mL"}, {"measurement": "solubility", "setting": "[2]; ethanol, organic solvent or mixture, EtOH, RT", "result": "< 20", "unit": "mg/mL"}, {"measurement": "solubility", "setting": "[2]; organic solvent or mixture, ACN, 50° C.", "result": "< 10", "unit": "mg/mL"}, {"measurement": "solubility", "setting": "[2]; organic solvent or mixture, ACN, RT", "result": "< 10", "unit": "mg/mL"}, {"measurement": "solubility", "setting": "[2]; organic solvent or mixture, Acetone, 50° C.", "result": "10 to 20", "unit": "mg/mL"}, {"measurement": "solubility", "setting": "[2]; organic solvent or mixture, Acetone, RT", "result": "< 10", "unit": "mg/mL"}, {"measurement": "solubility", "setting": "[2]; organic solvent or mixture, DCM, 50° C.", "result": "< 10", "unit": "mg/mL"}, {"measurement": "solubility", "setting": "[2]; organic solvent or mixture, DCM, RT", "result": "< 10", "unit": "mg/mL"}, {"measurement": "solubility", "setting": "[2]; organic solvent or mixture, DMF, RT", "result": "> 100", "unit": "mg/mL"}, {"measurement": "solubility", "setting": "[2]; organic solvent or mixture, DMSO, 50° C.", "result": "> 100", "unit": "mg/mL"}, {"measurement": "solubility", "setting": "[2]; organic solvent or mixture, DMSO, RT", "result": "< 100", "unit": "mg/mL"}, {"measurement": "solubility", "setting": "[2]; organic solvent or mixture, Dioxane, 50° C.", "result": "20 to 33", "unit": "mg/mL"}, {"measurement": "solubility", "setting": "[2]; organic solvent or mixture, Dioxane, RT", "result": "< 20", "unit": "mg/mL"}, {"measurement": "solubility", "setting": "[2]; organic solvent or mixture, EtOAc, 50° C.", "result": "< 10", "unit": "mg/mL"}, {"measurement": "solubility", "setting": "[2]; organic solvent or mixture, EtOAc, RT", "result": "< 10", "unit": "mg/mL"}, {"measurement": "solubility", "setting": "[2]; organic solvent or mixture, Heptane, 50° C.", "result": "< 10", "unit": "mg/mL"}, {"measurement": "solubility", "setting": "[2]; organic solvent or mixture, Heptane, RT", "result": "< 10", "unit": "mg/mL"}, {"measurement": "solubility", "setting": "[2]; organic solvent or mixture, IPA, 50° C.", "result": "20 to 33", "unit": "mg/mL"}, {"measurement": "solubility", "setting": "[2]; organic solvent or mixture, IPA, RT", "result": "10 to 20", "unit": "mg/mL"}, {"measurement": "solubility", "setting": "[2]; organic solvent or mixture, MEK, 50° C.", "result": "10 to 20", "unit": "mg/mL"}, {"measurement": "solubility", "setting": "[2]; organic solvent or mixture, MEK, RT", "result": "< 10", "unit": "mg/mL"}, {"measurement": "solubility", "setting": "[2]; organic solvent or mixture, MTBE, 50° C.", "result": "< 10", "unit": "mg/mL"}, {"measurement": "solubility", "setting": "[2]; organic solvent or mixture, MTBE, RT", "result": "< 10", "unit": "mg/mL"}, {"measurement": "solubility", "setting": "[2]; organic solvent or mixture, MeOH, 50° C.", "result": "50 to 100", "unit": "mg/mL"}, {"measurement": "solubility", "setting": "[2]; organic solvent or mixture, MeOH, RT", "result": "25 to 50", "unit": "mg/mL"}, {"measurement": "solubility", "setting": "[2]; organic solvent or mixture, THF, 50° C.", "result": "33 to 50", "unit": "mg/mL"}, {"measurement": "solubility", "setting": "[2]; organic solvent or mixture, THF, RT", "result": "< 10", "unit": "mg/mL"}, {"measurement": "solubility", "setting": "[2]; organic solvent or mixture, Toluene, 50° C.", "result": "< 10", "unit": "mg/mL"}, {"measurement": "solubility", "setting": "[2]; organic solvent or mixture, Toluene, RT", "result": "< 10", "unit": "mg/mL"}, {"measurement": "solubility", "setting": "[2]; water, H2O, 50° C.", "result": "10 to 20", "unit": "mg/mL"}, {"measurement": "solubility", "setting": "[2]; water, H2O, RT", "result": "< 10", "unit": "mg/mL"}]}
